Measured values taken from the OPERA property sets (Mansouri et al. 2018).

Conditions: for log10 BCF / log10 biotransformation half-life (days): fish

| SMILES | boiling point [°C] | melting point [°C] | other results |
| --- | --- | --- | --- |
| COS(=O)OC | 126 |  |  |
| O=C(O)Cc1ccccc1 | 266 | 76.5 | log10 Koc (L/kg): 1.45; log10 vapour pressure (mmHg): -2.42; ready biodegradability: readily biodegradable |
| O=c1[nH]sc2ccccc12 |  |  | ready biodegradability: not readily biodegradable |
| CCCCNCC(O)c1ccc(O)cc1 (stereo unspecified) |  | 124 |  |
| Cc1ccc(Cl)cc1[N+](=O)[O-] | 242 | 38 | log10 BCF: 1.92 |
| COCC(C)N(C(=O)CCl)c1c(C)csc1C (stereo unspecified) |  |  | log10 Henry constant (atm·m³/mol): -7.09; log10 vapour pressure (mmHg): -3.56 |
| O=[N+]([O-])OCC(CCl)O[N+](=O)[O-] (stereo unspecified) | 192 |  |  |
| NC1=NCC(c2ccccc2)O1 (stereo unspecified) |  | 136 |  |
| CCOc1ccc(N)cc1 | 254 | 2.4 | log10 vapour pressure (mmHg): -1.98; ready biodegradability: not readily biodegradable; log10 BCF: 1; log10 biotransformation half-life (days): -1.24 |
| CC1(C)OC(=O)CC(=O)O1 |  | 94 |  |
| OCCCl | 129 | -67.5 | log10 Koa: 4.3; log10 vapour pressure (mmHg): 0.856; ready biodegradability: readily biodegradable |
| Cc1nc2cc(-c3ccccc3)ccc2o1 |  | 63 |  |
| CC(C)CCON=O | 99.2 |  |  |
| COC | -24.8 | -142 | log10 Koa: 1.37; log10 vapour pressure (mmHg): 3.65; ready biodegradability: not readily biodegradable |
| CC(C)N(C(=O)SCC(Cl)=C(Cl)Cl)C(C)C |  | 29 | log10 Koc (L/kg): 3.35; log10 vapour pressure (mmHg): -3.92 |
| CCN(CC)c1ccccc1C | 209 | -60 |  |
| CC(=O)Cc1ccco1 | 180 | 29 |  |
| CNC(=O)Oc1ccc(SC)c(C)c1 |  | 118 |  |
| Cc1c(C)c(C)c(C)c(C)c1C | 263 | 166 | log10 Koa: 6.31; log10 vapour pressure (mmHg): -3.07 |
| COc1c(C[C@@H](O)C(C)C)c(=O)n(C)c2c(OC)cccc12 |  | 86.5 |  |
| COC(=O)c1cc(Cl)ccc1[N+](=O)[O-] |  | 48.5 |  |
| COc1cc2nc(N3CCN(C(=O)c4ccco4)CC3)nc(N)c2cc1OC |  | 279 |  |
| C1COCO1 | 78 | -95 | log10 Henry constant (atm·m³/mol): -4.61; log10 vapour pressure (mmHg): 1.9 |
| Nc1cc(S(N)(=O)=O)ccc1S(=O)(=O)CCCO |  | 137 |  |
| Oc1ccccc1Cc1ccccc1O |  |  | ready biodegradability: not readily biodegradable |

| SMILES | boiling point [°C] | melting point [°C] | other results |
| --- | --- | --- | --- |
| Brc1cc(Oc2c(Br)c(Br)c(Br)c(Br)c2Br)c(Br)c(Br)c1Br |  |  | log10 BCF: 5.44 |
| C[C@H](CCC(=O)O)[C@H]1CC[C@H]2[C@@H]3CCC4CCCC[C@]4(C)[C@H]3CC[C@]12C (stereo partly specified) |  | 164 |  |
| C[N+]1(CCC(O)(c2ccccc2)c2cccs2)CCOCC1.[I-] (stereo unspecified) |  | 190 |  |
| CC(N)CN (stereo unspecified) | 120 |  | log10 vapour pressure (mmHg): 1.03 |
| CC[C@H](CC[C@@H](C)[C@H]1CC[C@H]2[C@@H]3CC=C4C[C@@H](O)CC[C@]4(C)[C@H]3CC[C@]12C)C(C)C |  | 144 |  |
| FC(F)OC(F)C(F)(F)F (stereo unspecified) | 23.5 |  | log10 vapour pressure (mmHg): 2.82 |
| Cc1ncc[nH]1 | 267 | 144 | ready biodegradability: not readily biodegradable |
| Oc1c(Cl)cc(Cl)c(Cl)c1Cc1c(O)c(Cl)cc(Cl)c1Cl | 479 | 166 | ready biodegradability: not readily biodegradable; log10 BCF: 2.07 |
| N#Cc1cccc(C=O)c1 | 210 | 76.5 |  |
| CCC(OC(N)=O)C1CCCCC1 (stereo unspecified) |  | 128 |  |
| CCC(Br)CBr (stereo unspecified) | 166 | -65.4 | log10 vapour pressure (mmHg): 0.491 |
| CC(O)CNCCN (stereo unspecified) |  | -50 |  |
| O[C@@H]1CCCC[C@H]1O |  | 102 |  |
| Cc1c(C(N)=O)cc([N+](=O)[O-])cc1[N+](=O)[O-] |  | 177 |  |
| O=[N+]([O-])c1ccc(N=Nc2ccccc2)cc1 |  | 133 | log10 vapour pressure (mmHg): -5.93 |
| COC(=O)N(C(=O)N1COC2(C(=O)OC)Cc3cc(Cl)ccc3C2=N1)c1ccc(OC(F)(F)F)cc1 (stereo unspecified) |  | 140 |  |
| COC(=O)c1ccc2ccccc2c1 | 290 | 77 |  |
| CC(C)(O)CCCC1=CCC(C=O)CC1 (stereo unspecified) |  | -30 | ready biodegradability: readily biodegradable |
| CC(C)C(N)=O | 218 | 128 |  |
| Clc1cc(Cl)c(-c2cc(Cl)c(Cl)c(Cl)c2Cl)c(Cl)c1 |  |  | log10 biotransformation half-life (days): 2.51 |
| CCCCCCCCCCCCCC(=O)Cl |  | -1 |  |
| CN1CCC(=C2c3ccccc3C=Cc3ccccc32)CC1 |  | 113 |  |
| Brc1cc(Br)c(Br)c(Br)c1Br |  | 160 |  |
| C=CCOC(=O)C(=O)OCC=C | 217 |  |  |
| CC(C)CCN(CCC(C)C)CCC(C)C | 235 |  |  |

| SMILES | boiling point [°C] | melting point [°C] | other results |
| --- | --- | --- | --- |
| COC(=O)[C@@H]1C2CCC(C[C@@H]1OC(=O)c1ccccc1)N2C (stereo partly specified) |  | 98 | log10 vapour pressure (mmHg): -6.72 |
| O=C(Nc1ccc(F)cc1F)c1cccnc1Oc1cccc(C(F)(F)F)c1 |  | 160 | log10 Henry constant (atm·m³/mol): -6.49; log10 vapour pressure (mmHg): -7.5 |
| Cc1c(C(C)OC(=O)CCC(=O)O)oc2ccc(C3=CC(=O)OC3)cc12 (stereo unspecified) |  | 144 |  |
| CC(C)c1ccncc1 | 178 | -54.9 |  |
| CCC(CC)OC(C)=O | 133 |  |  |
| CCCCOC(=O)c1ccccc1 | 250 | -22.4 | log10 Koc (L/kg): 2.1; log10 vapour pressure (mmHg): -2 |
| COC(C)CCOC(C)=O (stereo unspecified) |  |  | ready biodegradability: readily biodegradable |
| CCc1oc2ccccc2c1C(=O)c1cc(Br)c(O)c(Br)c1 |  | 151 |  |
| CC(C)=CCO | 140 |  |  |
| Cc1c(N)cc([N+](=O)[O-])cc1C(N)=O |  | 199 |  |
| CC1(O)CCCCC1 | 155 | 25 | log10 vapour pressure (mmHg): 0.0531 |
| Clc1ccc2c(oc3c(Cl)c(Cl)c(Cl)c(Cl)c32)c1Cl |  |  | log10 BCF: 2.78; log10 biotransformation half-life (days): 0.43 |
| COP(=S)(OC)SCC(=O)N(C)C=O |  | 25.5 | log10 vapour pressure (mmHg): -6.07 |
| Cc1c(Cl)ccc(O)c1Cl | 236 | 58 |  |
| Brc1ccc2cccnc2c1 | 290 | 34 |  |
| CCC(c1ccc2cc(OC)ccc2c1)C(C)(C)C(=O)O (stereo unspecified) |  | 140 |  |
| C=C(C)C(CC)CC | 110 | -113 |  |
| C[S@](=O)c1ccccc1 | 264 | 32 |  |
| CCCCOC(=O)N(C)SN(C)C(=O)Oc1cccc2c1OC(C)(C)C2 |  |  | log10 vapour pressure (mmHg): -7.53 |
| CCC1(C)CC(=O)NC(=O)C1 |  | 126 |  |
| ClC1=C(Cl)[C@]2(Cl)[C@@H]3[C@@H]4C[C@@H]([C@H]5O[C@@H]45)[C@@H]3[C@@]1(Cl)C2(Cl)Cl (single isomer, unassigned) | 330 | 202 | log10 Henry constant (atm·m³/mol): -5.09; log10 Koa: 8.52; log10 Koc (L/kg): 4.08; log10 vapour pressure (mmHg): -5.38; ready biodegradability: not readily biodegradable; log10 BCF: 3.91; log10 biotransformation half-life (days): 1.65 |
| CCN(CC)CCO | 163 |  | log10 vapour pressure (mmHg): 0.146; ready biodegradability: not readily biodegradable |
| O=C(NC(Cc1ccccc1)c1ccccc1)c1cccnc1 (stereo unspecified) |  | 159 |  |
| C[C@]12CC[C@@H](O)C[C@@H]1CC[C@@H]1[C@@H]2CC[C@]2(C)C=CC[C@@H]12 |  | 143 |  |
| CCCCCC=O | 131 | -56 | log10 Henry constant (atm·m³/mol): -3.67; log10 Koa: 4.41; log10 vapour pressure (mmHg): 1.05; ready biodegradability: readily biodegradable |

| SMILES | boiling point [°C] | melting point [°C] | other results |
| --- | --- | --- | --- |
| CCCCOCCOCCOC(=O)CCCCC(=O)OCCOCCOCCCC |  | -47 | ready biodegradability: readily biodegradable |
| CCCCCCCI | 204 | -48.2 | log10 Henry constant (atm·m³/mol): -1.41; log10 vapour pressure (mmHg): -0.351 |
| CC(=O)OCc1ccco1 | 179 |  |  |
| Cc1c(O)c(Br)c(Br)c(Br)c1Br |  | 208 |  |
| CCCCCCCCCOC(C)=O | 210 | -26 |  |
| CCCCCCCCCCCCC1=C(OC(C)=O)C(=O)c2ccccc2C1=O |  | 59.6 |  |
| Cc1ccc(CCC=O)cc1 | 223 |  |  |
| CC(O)(P(=O)(O)O)P(=O)(O)O |  |  | ready biodegradability: readily biodegradable |
| O=C(O)CCCCCCCCCCCCCCCO |  | 98 |  |
| CCCCCCCC/C=C\CCCCCCCCO |  |  | ready biodegradability: readily biodegradable |
| CC(C)CCC(C)(C)C | 124 | -106 | log10 biodegradation half-life (days): 1.26; log10 vapour pressure (mmHg): 1.22 |
| Cc1ccnc(N)n1 |  | 160 |  |
| CC(C)(C)C(O)C(Oc1ccc(Cl)cc1)n1cncn1 (stereo unspecified) |  | 124 | log10 Koc (L/kg): 2.7; log10 vapour pressure (mmHg): -9.51 |
| CCCc1cccs1 | 158 |  |  |
| CCC(C)(C)C(C)(C)C | 140 | -9.8 | log10 vapour pressure (mmHg): 0.976 |
| FC(F)(F)C(Cl)=C(Cl)C(F)(F)F | 68.5 | -67.3 |  |
| C1=CC(c2ccc(C3CC=CCC3)cc2)CCC1 (stereo unspecified) |  |  | ready biodegradability: not readily biodegradable |
| CCOC(C)(C)CC | 102 |  | log10 vapour pressure (mmHg): 1.7 |
| O=C(Cl)CCCl | 144 |  |  |
| CCOC(=O)C1CC(=O)C(=C(O)C2CC2)C(=O)C1 (stereo unspecified) |  | 36 | log10 vapour pressure (mmHg): -4.79 |
| O=[N+]([O-])c1ccccc1Cl |  |  | ready biodegradability: not readily biodegradable; log10 BCF: 1.17; log10 biotransformation half-life (days): -0.58 |
| CCN(C)c1ccccc1 | 204 |  |  |
| CC(C)=CCCc1ccoc1 | 186 |  |  |
| Cc1c[nH]c(=O)[nH]c1=O |  | 316 |  |
| BrC(Br)(Br)c1ccc2ccccc2n1 |  | 128 |  |

| SMILES | boiling point [°C] | melting point [°C] | other results |
| --- | --- | --- | --- |
| CC(C)CN(CCO)CC(C)C | 214 |  |  |
| COc1ccc(NS(=O)(=O)c2ccc(N)cc2)nn1 |  | 182 |  |
| CCC(C)(C)Br | 108 |  |  |
| CCC(C)(Br)CC | 130 |  |  |
| Cc1ccc(F)cc1[N+](=O)[O-] | 213 | 27 |  |
| COC(=O)CCS | 166 |  | ready biodegradability: readily biodegradable |
| COc1cc(CCC(C)=O)ccc1O |  | 40.5 |  |
| CC1CCC(O)CC1 (stereo unspecified) | 172 |  |  |
| Cc1cc(-c2ccccc2)ccc1N |  | 43 |  |
| CCOC(C)(C)C | 73.1 | -94 | log10 Henry constant (atm·m³/mol): -2.79; log10 vapour pressure (mmHg): 2.09 |
| COc1ccc(C(=O)OC(=O)c2ccc(OC)cc2)cc1 |  | 94.5 |  |
| Clc1cccc(-c2c(Cl)c(Cl)c(Cl)c(Cl)c2Cl)c1Cl |  |  | log10 Henry constant (atm·m³/mol): -4.85 |
| C/C=C/C(=O)c1ccccc1 |  | 20.5 |  |
| O=S(=O)(Cl)c1c(F)c(F)c(F)c(F)c1F | 210 |  |  |
| Clc1cc(-c2cc(Cl)c(Cl)c(Cl)c2Cl)cc(Cl)c1Cl |  |  | log10 biotransformation half-life (days): 2.32 |
| CC(C)CCCC(C)CCO (stereo unspecified) | 212 |  |  |
| Cc1cc2ccccc2[nH]1 | 272 | 61 |  |
| CC(C)(N)c1ccccc1 | 196 |  |  |
| C/C=C/C(=O)N(CC)c1ccccc1C |  |  | ready biodegradability: not readily biodegradable |
| COc1ccc(N=Nc2ccccc2)cc1 | 340 | 56 |  |
| CCO/N=C(\OC(=O)c1ccccc1)c1c(OC)ccc(Cl)c1OC |  | 73 |  |
| Brc1cscc1Br | 222 | 4.5 |  |
